Test results from patent US12617771B2, “Diphenylpyrazole compound, and preparation method therefor and application thereof” (NORTHWEST A&F UNIVERSITY, priority 2021, dated 2026).
Where a name gives a salt, the structure may show the parent alone.

Columns and labels:
[1] = tested on: resistant strains of Plutella xylostella; test: Insecticidal synergistic activity with chlorantraniliprole, leaf dip, resistant strains (Yunnan); type: in vivo; conditions: for Resistance ratio to chlorantraniliprole: chlorantraniliprole alone or with 200 mg/L synergist, 48 hours; for LC50 of chlorantraniliprole solution: in vivo
Method: (§1) Experiment: 96% chlorantraniliprole (Chl) original drug was prepared into mother liquor with a concentration of 50000 mg/L. During the test, 6 treatment solutions with concentrations of 500, 250, 125, 62.5, 31.25 and 15.63 mg/L were prepared. 200 mg/L of the compound PXG22 of the present invention was added to each treatment solution, 200 mg/L of diethyl maleate (DEM) was used as the control synergist, and water was used as another control. The Plutella xylostella (Linnaeus) larvae was collected from a vegetable field in Yunnan Province. Healthy 3rd instar larvae of the same age were selected for indoor biological activity assay.
(§2) Clean wild cabbage leaves were cut into discs with a diameter of 6.5 cm (avoiding main veins). The leaves were soaked in the pesticide solution for 10 seconds, then taken out, dried at 25° C., and placed in a petri dish with a diameter of 6.5 cm. 10 larvae of the resistant strains of Plutella xylostella at the early stage of 3rd instar were placed in each petri dish, which was covered with double-layer absorbent roll paper, and covered by the upper cover of the petri dish. It was placed face up in an incubator at a temperature of 25±1° C., a relative humidity of 65%-70%, and a light ratio (L:D) of 16: 8 h. Each treatment was replicated 4 times with 10 larvae per replicate. […] The test process is strictly in accordance with the standard: NY/T 1154.7-2006.
(§3) Experimental data analysis was carried out using practical statistical analysis and its computer processing platform (DPS) (TANG Qiyi et al., 1997). The toxicity regression equation of each agent was established, LC50 value and 95% confidence limit were calculated.

[2] = tested on: high resistant strains II of Plutella xylostella (Lianzhou insect source); test: Insecticidal synergistic activity with chlorantraniliprole, high resistant strains II (Lianzhou insect source); type: in vivo; conditions: for Resistance ratio to chlorantraniliprole: high resistant strains II (Lianzhou)
Method: as §1, §2, §3
Experiment: The method was the same as in Experimental example 4, and the tested Plutella xylostella was the high resistant strains II against chlorantraniliprole (Lianzhou source). The added concentrations of the compound PXG22 of the present invention were 200 mg/L, 100 mg/L, 50 mg/L and 25 mg/L, and the added concentration of diethyl maleate (DEM) of the control synergist was maintained at 200 mg/L.

[3] = tested on: high resistant strains I of Plutella xylostella (Lianzhou insect source); test: Insecticidal synergistic activity with chlorantraniliprole, high resistant strains I (Lianzhou insect source); type: in vivo; conditions: for Resistance ratio to chlorantraniliprole: high resistant strains I (Lianzhou)
Method: as §1, §2, §3
Experiment: The method was the same as in Experimental example 4, and the tested Plutella xylostella was the high resistant strains I against chlorantraniliprole (Lianzhou source). The added concentrations of the compound PXG22 of the present invention were 200 mg/L, 100 mg/L and 50 mg/L, and the added concentration of diethyl maleate (DEM) of the control synergist was maintained at 200 mg/L.

[4] = tested on: ultra-high resistant strains of Plutella xylostella (Huizhou insect source); test: Insecticidal synergistic activity with chlorantraniliprole, ultra-high resistant strains (Huizhou insect source); type: in vivo; conditions: for Resistance ratio to chlorantraniliprole: chlorantraniliprole alone or with 200 mg/L synergist, ultra-high resistant strains (Huizhou); for LC50 of chlorantraniliprole solution: in vivo
Method: as §1, §2, §3
Experiment: The method was the same as in Experimental Example 4. The tested Plutella xylostella was ultra-high resistance strains to chlorantraniliprole (Huizhou insect source). The compound PXG22 of the present invention was added at a concentration of 200 mg/L. The control synergist diethyl maleate (DEM) was added at a concentration of 200 mg/L.

[5] = tested on: resistant strains of Plutella xylostella; test: Insecticidal synergistic activity with indoxacarb, leaf dip, resistant strains (Huizhou); type: in vivo; conditions: for LC50 of indoxacarb: in vivo; for Resistance ratio to indoxacarb: indoxacarb alone or with 200 mg/L synergist, 48 hours
Method: as §1, with “Experiment: 95% indoxacarb (Ind)” for “Experiment: 96% chlorantraniliprole (Chl)”, “the compounds PXG1, PXG2 and” for “the compound”, “invention were” for “invention was”, “in Huizhou city, Guangdong” for “in Yunnan”
as §2, §3

[6] = biological target: PxGSTσ2 (Plutella xylostella, UniProt Q6F443); test: Inhibition of PxGSTσ2 recombinant protein; type: biochemical; conditions: read-out: 100 μM Inhibition rate %
PxGSTσ2, sequence (Q6F443 entry or part of it): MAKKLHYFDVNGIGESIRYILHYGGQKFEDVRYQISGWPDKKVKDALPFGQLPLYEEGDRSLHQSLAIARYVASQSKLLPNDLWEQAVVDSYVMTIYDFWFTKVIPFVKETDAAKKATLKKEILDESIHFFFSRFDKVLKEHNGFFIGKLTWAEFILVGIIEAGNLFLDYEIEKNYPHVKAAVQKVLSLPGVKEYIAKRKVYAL
In short: (§4)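 Recombinant Plutella xylostella GSTs (1 μg) preincubated with compound in 100 mM PBS pH 7.2, 10 min, 30 °C; 1 mM CDNB and 1 mM GSH in PBS then added. A340 read every 1 min for 5 min; inhibition from A340 change vs control, IC50 by curve fit, triplicate.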

[7] = biological target: PxGSTδ1 (Plutella xylostella, UniProt D7URW9); test: Inhibition of PxGSTδ1 recombinant protein; type: biochemical; conditions: read-out: 100 μM Inhibition rate %
PxGSTδ1, sequence (D7URW9 entry or part of it): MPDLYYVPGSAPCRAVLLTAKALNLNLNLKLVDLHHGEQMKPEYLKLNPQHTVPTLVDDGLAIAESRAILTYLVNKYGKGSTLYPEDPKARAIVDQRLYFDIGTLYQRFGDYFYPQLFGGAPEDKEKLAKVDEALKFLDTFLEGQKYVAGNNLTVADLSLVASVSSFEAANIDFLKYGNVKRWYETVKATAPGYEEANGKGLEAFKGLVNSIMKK
In short: as §4

[8] = biological target: PxGSTσ1 (Plutella xylostella, UniProt Q6F436); test: Inhibition of PxGSTσ1 recombinant protein; type: biochemical; conditions: read-out: 100 μM Inhibition rate %
PxGSTσ1, sequence (Q6F436 entry or part of it): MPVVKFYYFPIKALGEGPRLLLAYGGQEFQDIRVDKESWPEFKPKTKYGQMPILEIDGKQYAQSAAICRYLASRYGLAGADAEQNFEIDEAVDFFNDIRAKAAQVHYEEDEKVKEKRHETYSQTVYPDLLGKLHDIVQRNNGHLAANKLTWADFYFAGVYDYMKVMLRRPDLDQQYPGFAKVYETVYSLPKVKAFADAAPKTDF
In short: as §4

[9] = biological target: PxGSTε3 (Plutella xylostella, UniProt O77409); test: Inhibition of PxGSTε3 recombinant protein; type: biochemical; conditions: read-out: 100 μM Inhibition rate %
PxGSTε3, sequence (O77409 entry or part of it): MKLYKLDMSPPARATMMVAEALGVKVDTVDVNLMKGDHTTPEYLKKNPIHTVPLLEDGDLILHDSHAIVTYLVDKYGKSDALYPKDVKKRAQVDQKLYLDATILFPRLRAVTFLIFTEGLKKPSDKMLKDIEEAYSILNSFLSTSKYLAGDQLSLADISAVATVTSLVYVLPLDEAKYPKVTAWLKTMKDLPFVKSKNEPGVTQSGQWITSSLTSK
In short: as §4

[10] = Plutella xylostella, read-out: LC50 of chlorantraniliprole solution
[11] = chlorantraniliprole alone or with 200 mg/L synergist

| Compound | Resistance ratio to chlorantraniliprole [1] | Resistance ratio to chlorantraniliprole [2, 11] | Resistance ratio to chlorantraniliprole [3, 11] | Resistance ratio to chlorantraniliprole [4] | LC50 of indoxacarb [5] | Resistance ratio to indoxacarb [5] | LC50 of chlorantraniliprole solution [1] | LC50 of chlorantraniliprole solution [4] | also measured |
| --- | --- | --- | --- | --- | --- | --- | --- | --- | --- |
| CNC(=O)c1cc(Cl)cc(C)c1NC(=O)c1cc(Br)nn1-c1ncccc1Cl [Chl, Chlorantraniliprole, reference compound] | 479 | 631.26 | 583.74 | 2188.61 | – | – | – | – | LC50 ([1]; Plutella xylostella, foliar, 48 h, read-out: LC50 of chlorantraniliprole solution): 110 µg/mL; LC50 [2, 10]: 145 µg/mL; LC50 [3, 10]: 134 µg/mL; LC50 [4, 10]: 503 µg/mL |
| CCOC(=O)/C=C\C(=O)OCC [DEM, diethyl maleate, reference compound] | 217.48 | 469.52 | 232 | 1925.26 | 54.11 mg/L | 104.06 | 50.02 mg/L | 442.81 mg/L | LC50 of chlorantraniliprole solution ([2]; in vivo): 107.99 mg/L; LC50 of chlorantraniliprole solution ([3]; in vivo): 53.36 mg/L |
| O=C(NNC(=O)c1cc(-c2ccccc2)nn1-c1ccccc1)c1cc(=O)[nH]c2ccccc12 [PXG22, N′-(1,3-diphenyl-1H-pyrazol-5-yl-carbonyl)-2-oxo-1,2-dihydroquinoline-4-yl-carbohydrazide] | 61.04 | 243.13 | 175.82 | 645.43 | 51.21 mg/L | 98.48 | 14.04 mg/L | 148.45 mg/L | inhibition at 100 µM [6]: 76.7%; inhibition at 100 µM [7]: 78.8%; inhibition at 100 µM [8]: 45.7%; inhibition at 100 µM [9]: 65.8%; Resistance ratio to chlorantraniliprole ([2]; 25 mg/L PXG22 added): 341.48; Resistance ratio to chlorantraniliprole ([2]; 50 mg/L PXG22 added): 312.52; Resistance ratio to chlorantraniliprole ([2]; 100 mg/L PXG22 added): 195.04; Resistance ratio to chlorantraniliprole ([3]; 50 mg/L PXG22 added): 216.91; Resistance ratio to chlorantraniliprole ([3]; 100 mg/L PXG22 added): 92 |
